Laboratory results from patent US20180199572A1, “Herbicidal Composition Comprising Cinmethylin and Metolachlor or S-Metolachlor” (BASF Agro B.V., priority 2015, published 2018).

What was measured:
Assay in all cases: Greenhouse pre-emergence herbicidal activity
Assay type in all cases: in vivo
Settings in all cases: 20 DAT
[1] = test system: Polygonum convolvulus (POLCO)
[2] = test system: Chenopodium album (CHEAL)
[3] = test system: Anthemis arvensis (ANTAR)
Avena fatua (AVEFA) = test system: Avena fatua (AVEFA)
[4] = test system: Abutilon theophrasti (ABUTH)
Stellaria media (STEME) = test system: Stellaria media (STEME)
Setaria viridis (SETVI) = test system: Setaria viridis (SETVI)
[5] = test system: Lolium multiflorum (LOLMU)
[6] = test system: Alopecurus myosuroides (ALOMY)
[7] = solo S-metolachlor, use rate 250 g ai/ha
[8] = solo S-metolachlor, use rate 62.5 g ai/ha
[9] = solo S-metolachlor, use rate 125 g ai/ha
[10] = solo herbicide A, use rate 125 g ai/ha
[11] = solo herbicide A, use rate 31.25 g ai/ha
[12] = solo herbicide A, use rate 62.5 g ai/ha

## CCc1cccc(C)c1N(C(=O)CCl)[C@@H](C)COC [S-metolachlor]
[1]; [7]
  herbicidal activity (%): 25%
[1]; solo S-metolachlor, use rate 500 g ai/ha
  herbicidal activity (%): 20%
[2]; [8]
  herbicidal activity (%): 0%
[3]; [8]
  herbicidal activity (%): 0%
[3]; [9]
  herbicidal activity (%): 0%
[3]; [7]
  herbicidal activity (%): 25%
Avena fatua (AVEFA); [7]
  herbicidal activity (%): 25%
[4]; [8]
  herbicidal activity (%): 0%
[4]; [9]
  herbicidal activity (%): 0%
Stellaria media (STEME); [9]
  herbicidal activity (%): 35%
Stellaria media (STEME); [7]
  herbicidal activity (%): 65%
Setaria viridis (SETVI); [8]
  herbicidal activity (%): 80%
[5]; [7]
  herbicidal activity (%): 60%
[6]; [9]
  herbicidal activity (%): 40%
[6]; [7]
  herbicidal activity (%): 50%

## (±)-2-exo-(2-Methylbenzyloxy)-1-methyl-4-isopropyl-7-oxabicyclo[2.2.1]heptane [herbicide A]
[1]; [10]
  herbicidal activity (%): 0%
[1]; solo herbicide A, use rate 250 g ai/ha
  herbicidal activity (%): 15%
[2]; [11]
  herbicidal activity (%): 40%
[3]; [11]
  herbicidal activity (%): 0%
[3]; [12]
  herbicidal activity (%): 0%
[3]; [10]
  herbicidal activity (%): 0%
Avena fatua (AVEFA); [10]
  herbicidal activity (%): 25%
[4]; [11]
  herbicidal activity (%): 30%
[4]; [12]
  herbicidal activity (%): 60%
Stellaria media (STEME); [12]
  herbicidal activity (%): 30%
Stellaria media (STEME); [10]
  herbicidal activity (%): 40%
Setaria viridis (SETVI); [11]
  herbicidal activity (%): 90%
[5]; [10]
  herbicidal activity (%): 85%
[6]; [12]
  herbicidal activity (%): 98%
[6]; [10]
  herbicidal activity (%): 98%
